The test has as its target T1, α4β7 integrin (Homo sapiens, UniProt P13612+P26010).
T1 construct: a cell line RPMI-8866, which is known to express α4β7 integrin; endogenous in cells; host or cells: RPMI-8866 (human B cell line)
T1 sequence (P13612 34-1032): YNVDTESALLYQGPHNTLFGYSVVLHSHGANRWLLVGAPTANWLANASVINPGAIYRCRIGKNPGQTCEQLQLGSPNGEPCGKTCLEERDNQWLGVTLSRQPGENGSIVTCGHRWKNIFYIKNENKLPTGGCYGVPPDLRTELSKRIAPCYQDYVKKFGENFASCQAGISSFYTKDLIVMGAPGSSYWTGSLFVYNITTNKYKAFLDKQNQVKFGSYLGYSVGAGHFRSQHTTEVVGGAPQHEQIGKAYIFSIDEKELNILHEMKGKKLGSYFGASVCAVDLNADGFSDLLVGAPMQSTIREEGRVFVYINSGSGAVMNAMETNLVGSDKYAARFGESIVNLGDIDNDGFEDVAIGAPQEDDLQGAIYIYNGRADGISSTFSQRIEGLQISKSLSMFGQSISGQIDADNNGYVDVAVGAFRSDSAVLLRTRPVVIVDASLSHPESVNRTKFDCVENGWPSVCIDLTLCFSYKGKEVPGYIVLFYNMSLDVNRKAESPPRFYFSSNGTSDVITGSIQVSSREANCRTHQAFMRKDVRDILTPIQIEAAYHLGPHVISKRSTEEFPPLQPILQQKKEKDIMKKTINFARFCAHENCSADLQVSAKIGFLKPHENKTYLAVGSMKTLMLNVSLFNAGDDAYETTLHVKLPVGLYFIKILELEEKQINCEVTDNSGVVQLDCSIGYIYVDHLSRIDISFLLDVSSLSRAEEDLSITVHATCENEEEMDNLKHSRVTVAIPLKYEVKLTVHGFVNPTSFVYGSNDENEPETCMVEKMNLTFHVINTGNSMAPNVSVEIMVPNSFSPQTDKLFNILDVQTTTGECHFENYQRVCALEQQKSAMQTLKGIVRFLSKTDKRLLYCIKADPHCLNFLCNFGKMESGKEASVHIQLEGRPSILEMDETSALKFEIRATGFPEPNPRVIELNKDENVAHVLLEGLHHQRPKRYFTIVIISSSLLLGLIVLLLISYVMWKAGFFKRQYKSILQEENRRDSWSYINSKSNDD
T1 sequence (P26010 20-798): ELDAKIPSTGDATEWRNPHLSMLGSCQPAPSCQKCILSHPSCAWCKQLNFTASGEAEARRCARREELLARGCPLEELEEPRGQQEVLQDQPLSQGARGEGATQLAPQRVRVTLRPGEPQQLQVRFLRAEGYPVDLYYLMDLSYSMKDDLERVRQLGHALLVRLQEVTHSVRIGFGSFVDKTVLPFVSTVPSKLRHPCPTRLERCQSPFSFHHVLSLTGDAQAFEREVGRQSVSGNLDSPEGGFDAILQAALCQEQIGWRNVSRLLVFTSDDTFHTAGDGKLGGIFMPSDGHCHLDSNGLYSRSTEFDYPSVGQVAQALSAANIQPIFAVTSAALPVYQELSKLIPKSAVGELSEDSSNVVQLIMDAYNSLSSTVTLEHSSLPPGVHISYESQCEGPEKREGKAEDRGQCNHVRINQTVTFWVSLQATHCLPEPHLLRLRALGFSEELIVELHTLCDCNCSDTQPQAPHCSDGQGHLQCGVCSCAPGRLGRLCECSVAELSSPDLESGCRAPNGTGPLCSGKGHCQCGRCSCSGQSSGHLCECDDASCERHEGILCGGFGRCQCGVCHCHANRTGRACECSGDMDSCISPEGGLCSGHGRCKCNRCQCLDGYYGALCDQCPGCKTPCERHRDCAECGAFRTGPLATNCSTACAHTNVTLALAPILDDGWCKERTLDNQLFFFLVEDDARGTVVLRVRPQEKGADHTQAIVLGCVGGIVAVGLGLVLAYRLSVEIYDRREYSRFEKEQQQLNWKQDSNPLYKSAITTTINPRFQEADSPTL
The test can be described thus: MAdCAM-1/α4β7 integrin binding inhibitory activity evaluation test (RPMI-8866 cells binding to MAdCAM-1/Fc). Format: cell-based. The following applies: recombinant mouse MAdCAM-1/Fc, no serum. The method, then:
(2) MAdCAM-1/α4β7 Integrin Binding Inhibitory Activity Evaluation Test
Each test substance was measured in terms of an ability to inhibit the MAdCAM-1 binding of a human B cell line, namely, a cell line RPMI-8866, which is known to express α4β7 integrin.
A solution of recombinant mouse MAdCAM-1/Fc (R&D Systems, Inc.) (0.75 μg/mL) diluted with a buffer A (carbonate buffer, pH 9.6) was added in an amount of 50 μL/well to a 96-well microtiter plate, followed by incubation at 4° C. overnight. After the plate was washed with PBS once, 150 μL/well of Block Ace (Snow Brand Milk Products Co., Ltd.) was added, followed by incubation at room temperature for 2 hours. After removal, the plate was washed with PBS once.
Then, 100 μL of the RPMI-8866 cells (2×10^6 cells/mL) and 100 μL of the test substance at each of various concentrations diluted with a binding buffer (DMEM containing 40 mM HEPES, 0.2% BSA, and 4 mM MnCl2) were added on the plate coated with the MAdCAM-1/Fc (5×10^5 cells/well), followed by incubation at 30° C. for 15 to 60 minutes. After the cells were bound to the wells, the plate was washed with PBS to remove unbound cells. A buffer C (PBS containing 1.5% Triton X-100) in an amount 50 μL/well was added to the plate to lyse the bound RPMI-8866 cells. After 30 μL of a substrate buffer (Promega, CytoTox 96 Non-Radioactive Cytotoxicity Assay) was added to 30 μL of the cell lysate, a reaction was allowed to proceed at room temperature in the dark for 30 minutes. After 30 μL of a stop solution (Promega, CytoTox 96 Non-Radioactive Cytotoxicity Assay) was added to each, and then an absorbance at 490 nm was measured using a plate reader. The absorbance obtained here represents a detection result of an activity of lactate dehydrogenase (LDH) eluted in the supernatant of each well, that is, the absorbance is proportional to the number of RPMI-8866 cells bound to the MAdCAM-1 and thus remaining on the plate. The test was performed in duplicate. Provided that the absorbance of the well containing no test substance was 100%, a cell binding rate with the test substance at each of the various concentrations was figured out, and a concentration IC50 which brought about 50% binding inhibition was calculated.

As for `Cn1ccc(=O)n(-c2ccc(C[C@H](NC(=O)c3cc(F)c(NS(=O)(=O)c4ccc(NC(=O)C5(C(F)(F)F)CC5)cc4)cc3F)C(=O)O)cn2)c1=O` [Compound A55], the IC50 turned out to be 2.2 nM.

As for `Cc1cn(C)c(=O)n(-c2ccc(C[C@H](NC(=O)c3cc(F)c(NS(=O)(=O)c4ccc(NC(=O)C5(C(F)(F)F)CC5)cc4)cc3F)C(=O)O)cn2)c1=O` [Compound A56], the IC50 was 1.2 nM.

As for `Cn1ccc(=O)n(-c2ccc(C[C@H](NC(=O)c3cc(F)c(NS(=O)(=O)c4ccc(NC(=O)C(C)(C)C(F)(F)F)cc4)cc3F)C(=O)O)cn2)c1=O` [Compound A57], the IC50 came out at 2 nM.

For the compound `Cc1cn(C)c(=O)n(-c2ccc(C[C@H](NC(=O)c3cc(F)c(NS(=O)(=O)c4ccc(NC(=O)C(C)(C)C(F)(F)F)cc4)cc3F)C(=O)O)cn2)c1=O` [Compound A58], the IC50 worked out at 1.3 nM.

Consider `Cn1ccc(=O)n(-c2ccc(C[C@H](NC(=O)c3cc(F)c(NS(=O)(=O)c4ccc(NC(=O)C5(C#N)CC5)cc4)cc3F)C(=O)O)cn2)c1=O` [Compound A59], for which the IC50 worked out at 3.3 nM.

For the compound `Cc1cn(C)c(=O)n(-c2ccc(C[C@H](NC(=O)c3cc(F)c(NS(=O)(=O)c4ccc(NC(=O)C5(C#N)CC5)cc4)cc3F)C(=O)O)cn2)c1=O` [Compound A60], the concentration for half-maximal inhibition (IC50) is 2.3 nM.

For the compound `CCC(CC)C(=O)Nc1ccc(S(=O)(=O)Nc2cc(F)c(C(=O)N[C@@H](Cc3ccc(-n4c(=O)ccn(C)c4=O)nc3)C(=O)O)cc2F)cc1` [Compound A61], the IC50 stood at 6.9 nM.

As to `Cn1ccc(=O)n(-c2ccc(C[C@H](NC(=O)c3cc(F)c(NS(=O)(=O)c4ccc(NC(=O)C(C)(C)CO)cc4)cc3F)C(=O)O)cn2)c1=O` [Compound A62], the IC50 was 4.9 nM.

On to `Cc1cn(C)c(=O)n(-c2ccc(C[C@H](NC(=O)c3cc(F)c(NS(=O)(=O)c4ccc(NC(=O)C(C)(C)CO)cc4)cc3F)C(=O)O)cn2)c1=O` [Compound A63], for which the concentration for half-maximal inhibition (IC50) amounted to 2.4 nM.

Take `Cn1ccc(=O)n(-c2ccc(C[C@H](NC(=O)c3cc(F)c(NS(=O)(=O)c4ccc(NC(=O)C5CCCC5)cc4)cc3F)C(=O)O)cn2)c1=O` [Compound A64]: the IC50 was determined as 5.5 nM.

On to `Cc1cn(C)c(=O)n(-c2ccc(C[C@H](NC(=O)c3cc(F)c(NS(=O)(=O)c4ccc(NC(=O)C5CCCC5)cc4)cc3F)C(=O)O)cn2)c1=O` [Compound A65], for which the IC50 was 3.3 nM.

On to `Cn1c(C(F)(F)F)cc(=O)n(-c2ccc(C[C@H](NC(=O)c3cc(F)c(NS(=O)(=O)c4ccc(NC(=O)C(C)(C)C)cc4)cc3F)C(=O)O)cn2)c1=O` [Compound A66], for which the concentration for half-maximal inhibition (IC50) came out at 3.3 nM.

Consider `Cn1cc(C(F)(F)F)c(=O)n(-c2ccc(C[C@H](NC(=O)c3cc(F)c(NS(=O)(=O)c4ccc(NC(=O)C(C)(C)C)cc4)cc3F)C(=O)O)cn2)c1=O` [Compound A67], for which the half-maximal inhibitory concentration (IC50) came to 1.9 nM.

`Cc1cn(C)c(=O)n(-c2ccc(C[C@H](NC(=O)c3cc(F)c(NS(=O)(=O)c4ccc(NC(=O)C#CC(C)(C)C)cc4)cc3F)C(=O)O)cn2)c1=O` [Compound A68]: the 50% inhibitory concentration (IC50) was 5 nM.

For `Cc1cn(C)c(=O)n(-c2ccc(C[C@H](NC(=O)c3cc(F)c(NS(=O)(=O)c4ccc(NC(=O)C(C)(C)C)cc4)cc3F)C(=O)O)nc2)c1=O` [Compound A69], the concentration for half-maximal inhibition (IC50) was found to be 1.8 nM.

For `Cn1ccc(=O)n(-c2ccc(C[C@H](NC(=O)c3cc(F)c(NS(=O)(=O)c4ccc(NC(=O)C(C)(C)C)cc4)cc3F)C(=O)O)nc2)c1=O` [Compound A70], the IC50 was found to be 3.4 nM.

As to `Cc1cn(C)c(=O)n(-c2ccc(C[C@H](NC(=O)c3cc(F)c(NS(=O)(=O)c4ccc(NC(=O)C(C)C)cc4)cc3F)C(=O)O)cn2)c1=O` [Compound A71], the IC50 is 3.2 nM.

Turning to `Cc1cc(=O)n(-c2ccc(C[C@H](NC(=O)c3cc(F)c(NS(=O)(=O)c4ccc(NC(=O)C(C)(C)C)cc4)cc3F)C(=O)O)nc2)c(=O)n1C` [Compound A72], the IC50 stood at 1.8 nM.

As to `Cc1cn(C)c(=O)n(-c2ccc(C[C@H](NC(=O)c3cc(F)c(NS(=O)(=O)c4ccc(NC(=O)C(C)(C)C)s4)cc3F)C(=O)O)cn2)c1=O` [Compound A73], the IC50 came to 2.2 nM.
